# What was measured:
# Assay type in all cases: physicochemical
# [1] = UV/Vis spectral properties (UVA, UVB and visible absorption), Cary-50 spectrophotometer; details: for Absorption spectra compared to oxybenzone: 5 mM (N-Boc-Imine-6 also 0.05 mM), FIG. 3; for UV absorption properties compared to oxybenzone: 5 mM or 0.05 mM, FIG. 1
# Procedure: Imine-1, Imine-2, and Imine-3 were synthesized, purified, and isolated (see above). All three compounds were separately dissolved in acetonitrile to a final concentration of 5 mM (FIG. 1) or 0.05 mM (FIG. 1, inset) and analyzed by UV/Vis (Cary-50 Spectrophotomer). The spectral properties were compared to oxybenzone in acetonitrile.
# Carbamate-1, first described in U.S. Pat. No. 5,490,980A, was synthesized, purified, and isolated (see above). Carbamate-1 was dissolved in acetonitrile to a final concentration of 0.05 mM and analyzed by UV/Vis (Cary-50 Spectrophotomer). The spectral properties were compared to oxybenzone in acetonitrile at a final concentration of 0.05 mM.
# Imine-4, Imine-5, and N-Boc-Imine-6 were synthesized, purified, and isolated (see above). All three compounds were separately dissolved in acetonitrile to a final concentration of 5 mM (FIG. 3) and analyzed by UV/Vis (Cary-50 Spectrophotomer). N-Boc-Imine-6 was diluted in acetonitrile to a final concentration of 0.05 mM (FIG. 3, inset) and analyzed by UV/Vis. […] Spectral properties were compared to oxybenzone in acetonitrile at the same concentration.
# To understand the solution stability of the Boc-protected imines in protic solvent, N-Boc-Imine-6 was prepared in ethanol in the presence of catalytic glacial acetic acid. Briefly, to a solution of oxybenzone (0.10 g, 0.438 mmol, 1 eq) and N-Boc-1,6-hexanediamine (0.094 g, 0.43 mmol, 1 eq) in ethanol (0.3 mL) was added catalytic glacial acetic acid (1 μL). The reaction mixture was agitated at 900 rpm at 70° C. for 16 hr and monitored by LCMS. […] The reaction was then diluted in ethanol to final concentration of 0.04 mM and analyzed by UV/Vis spectroscopy.
# N-Boc-Imine-8 and Imine-8 was synthesized, purified, and isolated (see above). N-Boc-Imine-8 and Imine-8 were dissolved in ethanol to a final concentration of 0.032 mM and 8 mM, respectively (FIG. 6) and analyzed by UV/Vis. (Cary-50 Spectrophotomer). Spectral properties were compared to sulisobenzone in ethanol at similar concentration.
# Imine-10 was first dissolved in methyl tert-butyl ether and then diluted in ethanol to a final concentration of 5 mM and 0.04 mM (FIG. 7) and analyzed by UV/Vis. (Cary-50 Spectrophotomer). Spectral properties were compared to oxybenzone at similar concentration.
# [2] = Solution stability of Boc-protected imine in protic solvent (ethanol), LCMS and UV/Vis; details: 70° C., over 24 hours, catalytic glacial acetic acid
# Procedure: To understand the solution stability of the Boc-protected imines in protic solvent, N-Boc-Imine-6 was prepared in ethanol in the presence of catalytic glacial acetic acid. Briefly, to a solution of oxybenzone (0.10 g, 0.438 mmol, 1 eq) and N-Boc-1,6-hexanediamine (0.094 g, 0.43 mmol, 1 eq) in ethanol (0.3 mL) was added catalytic glacial acetic acid (1 μL). The reaction mixture was agitated at 900 rpm at 70° C. for 16 hr and monitored by LCMS. Full reaction of the starting material to a single product peak was observed by LCMS indicating completion. The reaction was then diluted in ethanol to final concentration of 0.04 mM and analyzed by UV/Vis spectroscopy. […] Additionally, the Boc-protecting group remained intact throughout the reaction and UV/Vis analysis.
# [3] = Solubility in acetonitrile
compound,measurement,setting,value
COc1ccc(/C(=N/C(CCC(N)=O)C(=O)O)c2ccccc2)c(O)c1 (centres unmarked) [Imine-5],Absorption spectra compared to oxybenzone,[1]; acetonitrile,"encompassed the UVA-1, UVA-2, and UVB regions as well as the visible region of the spectrum (greater than 400 nm)"
COc1cc(O)c(/C(=N\CCCCCCN)c2ccccc2)cc1S(=O)(=O)O [Imine-8],Absorbance compared to sulisobenzone,"[1]; ethanol, N-Boc-Imine-8 0.032 mM, Imine-8 8 mM, FIG. 6",retained absorbance in the UVB region and extended absorbance into the UVA region
COc1ccc(/C(=N/Cc2ccccc2)c2ccccc2)c(O)c1 [Imine-1],UV absorption properties compared to oxybenzone,[1]; acetonitrile,"improved both UVA-1, UVA-2, and UVB absorption properties"
COc1ccc(/C(=N/O)c2ccccc2)c(O)c1 [Imine-3],UV absorption properties compared to oxybenzone,[1]; acetonitrile,loss in the UVA blocking and reduction in UVB blocking
CCCCCCOC(=O)c1ccccc1/C(=N/CCCCCCN)c1cccc(N(CC)CC)c1O [Imine-9],Absorbance spectra of DHHB-derived imines,[1]; data not shown,"red shift of the absorbance spectra, which extends to the visible region"
COc1ccc(/C(=N/CCCCCCNC(=O)OC(C)(C)C)c2ccccc2)c(O)c1 [N-Boc-Imine-6],Solution stability without reversion to starting ketone and amine,[2],stable
same,Absorption spectra compared to oxybenzone,[1]; acetonitrile,"encompassed the UVA-1, UVA-2, and UVB regions as well as the visible region of the spectrum (greater than 400 nm)"
same,Absorption spectrum in ethanol,"[1]; ethanol, 0.04 mM, reaction mixture diluted, FIG. 4",encompasses the UVA and UVB regions as well as the visible region of the spectrum (greater than 400 nm)
COc1ccc(/C(=N/CCCCCCN)c2ccccc2)c(O)c1 [Imine-6],Solubility in acetonitrile,[3],poor solubility
COc1ccc(/C(=N/c2ccccc2)c2ccccc2)c(O)c1 [Imine-2],UV absorption properties compared to oxybenzone,[1]; acetonitrile,"improved both UVA-1, UVA-2, and UVB absorption properties"
"COc1ccc(C(=O)c2ccccc2)c(OC(=O)NCCCCCCNC(=O)OC(C)(C)C)c1 [Carbamate-1, reference compound]",UV filter properties compared to oxybenzone,"[1]; acetonitrile, 0.05 mM, FIG. 2",UVA blocking was reduced
